Experiments:
[1] = tested on: Mycobacterium tuberculosis (M. tuberculosis Kurono); assay: Antibacterial test (agar dilution method), M. tuberculosis Kurono; assay type: cell-based; conditions: Mycobacterium tuberculosis, 336 h; 7H11 agar medium, about 10^6 CFU/mL, 37° C. for 14 days; read-out: Minimum inhibitory concentration (MIC) kurono
[2] = tested on: Mycobacterium tuberculosis (M. tuberculosis H37Rv); assay: Antibacterial test (agar plate dilution method), M. tuberculosis H37Rv; assay type: cell-based; conditions: 336 h, 7H11 agar medium, about 10^6 CFU/mL, 37° C. for 14 days, read-out: minimum inhibitory concentration against M. tuberculosis H37Rv

O=C1CCc2c(OC[C@]3(O)CCN(c4ccc(Cl)cc4F)C[C@H]3O)ccc(F)c2N1 [Example 259, 5-{[(3R,4R)-1-(4-Chloro-2-fluorophenyl)-3,4-dihydroxypiperidin-4-yl]methoxy}-8-fluoro-3,4-dihydroquinolin-2(1H)-one]
MIC [1]: < 0.39 µg/mL
MIC [2]: < 0.39 µg/mL

O=C1CCc2c(OC[C@@]3(O)CCN(c4ccc(Br)cc4F)C[C@H]3O)ccc(Cl)c2N1 [Example 364, 5-{[(3R,4S)-1-(4-Bromo-2-fluorophenyl)-3,4-dihydroxypiperidin-4-yl]methoxy}-8-chloro-3,4-dihydroquinolin-2(1H)-one]
MIC [1]: < 0.39 µg/mL
melting point: 185.8 to 186 °C

O=C1CCc2c(OCC3CCN(c4ncc(Cl)cc4Cl)CC3)ccc(F)c2N1 [Example 399, 5-{[1-(3,5-Dichloropyridin-2-yl)piperidin-4-yl]methoxy}-8-fluoro-3,4-dihydroquinolin-2(1H)-one]
MIC [1]: < 0.39 µg/mL
melting point: 194 to 195 °C

O=C1CCc2c(OC[C@@]3(O)CCN(c4c(F)cc(Cl)cc4F)C[C@H]3F)ccc(F)c2N1 [Example 446, 5-{[(3R,4S)-1-(4-Chloro-2,6-difluorophenyl)-3-fluoro-4-hydroxypiperidin-4-yl]methoxy}-8-fluoro-3,4-dihydroquinolin-2(1H)-one]
MIC [1]: < 0.39 µg/mL
melting point: 224 to 225 °C

O=C1CCc2c(OC[C@]3(O)CCN(c4c(F)cc(Cl)cc4F)C[C@@H]3F)ccc(F)c2N1 [Example 447, 5-{[(3S,4R)-1-(4-Chloro-2,6-difluorophenyl)-3-fluoro-4-hydroxypiperidin-4-yl]methoxy}-8-fluoro-3,4-dihydroquinolin-2(1H)-one]
MIC [1]: < 0.39 µg/mL
melting point: 224 to 225 °C

O=C1CCc2c(OC[C@]3(O)CCN(c4c(F)cc(Cl)cc4F)C[C@H]3F)ccc(F)c2N1 [Example 448, 5-{[(3R,4R)-1-(4-Chloro-2,6-difluorophenyl)-3-fluoro-4-hydroxypiperidin-4-yl]methoxy}-8-fluoro-3,4-dihydroquinolin-2(1H)-one]
MIC [1]: < 0.39 µg/mL
melting point: 207 to 209 °C

O=C1CCc2c(OC[C@@]3(O)CCN(c4c(F)cc(Cl)cc4F)C[C@@H]3F)ccc(F)c2N1 [Example 449, 5-{[(3S,4S)-1-(4-Chloro-2,6-difluorophenyl)-3-fluoro-4-hydroxypiperidin-4-yl]methoxy}-8-fluoro-3,4-dihydroquinolin-2(1H)-one]
MIC [1]: < 0.39 µg/mL
melting point: 209 to 210 °C

O=C1CCc2c(SCC3(O)CCN(c4ccc(Cl)cc4F)CC3)ccc(F)c2N1 [Example 460, 5-({[1-(4-Chloro-2-fluorophenyl)-4-hydroxypiperidin-4-yl]methyl}sulfanyl)-8-fluoro-3,4-dihydroquinolin-2(1H)-one]
MIC [1]: < 0.39 µg/mL
melting point: 171 to 172 °C

Reference: patent publication US10464926B2, “Heterobicyclic compounds and their use for the treatment of tuberculosis” (OTSUKA PHARMACEUTICAL CO., LTD., priority 2014, dated 2019)
